In paper PMC7662308, “Hevein-Like Antimicrobial Peptides Wamps: Structure–Function Relationship in Antifungal Activity and Sensitization of Plant Pathogenic Fungi to Tebuconazole by WAMP-2-Derived Peptides” (International Journal of Molecular Sciences, 2020):
Converted amounts (≈) assume the structure as drawn. Like-named read-outs stand apart in the source and are kept apart here. Residues, ends and D or L forms follow the SMILES beside them.

Columns and labels:
B. sorokiniana [1] = assay type: cell-based, Bipolaris sorokiniana
Text: (§1) Conidia of Fusarium spp., A. alternata, B. sorokiniana, and C. cucumerinum were collected from the surface of their colonies on potato dextrose agar by flooding the mycelium with sterilized distilled water (SDW) and gently rubbing with a glass rod, while P. nodorum spores were obtained by washing off wheat kernels infested with the pathogen. The spores (conidia) were suspended in SDW (control) or in SDW-dissolved WAMPs, WAMP-2-derived peptides, the fungicide or their mixtures to a final concentration of 10^4–10^5 spores/mL and incubated at 20–22 °C for 5–6 or 12–16 h depending on the pathogen species. The number of germinated and non-germinated spores (500 ones of each pathogen per treatment) was counted in wells of a polystyrene culture plate using an inverted microscope followed by calculation of the percent of inhibition of the spore germination as compared to control.
(§2) For each pathogen, tests on evaluation of antifungal or sensitizing activity of WAMP homologues or their peptides (three replications per treatment, 500 counted conidia in each one) included at least two independent experimental series. Mean values, standard deviations (SD), standard errors (SE), and the significance of differences (p ≤ 0.05) of the means between treatments and controls (t-test for the independent variables) were determined using […] v. 6.1 software (StatSoft Inc., Tulsa, OK, USA).

A. alternata [2] = assay type: cell-based, Alternaria alternata
Text: as §1, §2

C. cucumerinum = assay type: cell-based, Cladosporium cucumerinum
Text: as §1, §2

F. oxysporum = assay type: cell-based, Fusarium oxysporum
Text: as §1, §2

F. culmorum [3] = assay: Inhibition of spore (conidia) germination, microplate assay; assay type: cell-based, Fusarium culmorum; settings: for IC50: WAMP-2-derived synthetic peptides, spore germination; for Inhibition of conidium germination: peptide alone, 400 μg/mL, mean of three experiments
Text: as §1, §2

P. nodorum [4] = assay type: cell-based, Parastagonospora nodorum
Text: as §1, §2

F. avenaceum [5] = assay: Inhibition of spore (conidia) germination, microplate assay; assay type: cell-based, Fusarium avenaceum; settings: for IC50: WAMP-2-derived synthetic peptides, spore germination
Text: as §1, §2

B. sorokiniana [6] = assay: Checkerboard sensitization assay, WAMP-2 fragment with Folicur EC 250 (tebuconazole), spore germination; assay type: cell-based, Bipolaris sorokiniana; settings: effective tebuconazole–WAMP-2 fragment composition; FFCI ≤ 0.5 = synergy; MFC by probit analysis
Text: as §1, with “control. […]” for “control.”
(§3) The fragments were tested at concentrations ranging between 5, 10 and 50 μg/mL against B. sorokiniana, A. alternata or other cereal-pathogenic fungi (F. culmorum, F. avenacenum and P. nodorum), respectively, to concentrations that produced the inhibitory effect of ≤50%. The sub-fungicidal concentrations of tebuconazole were preliminarily determined for each pathogen through serial double or fivefold dilutions. […]

F. culmorum [7] = assay: as above; assay type: cell-based, Fusarium culmorum; settings: effective tebuconazole–WAMP-2 fragment composition; FFCI ≤ 0.5 = synergy; MFC by probit analysis
Text: as §1, with “control. […]” for “control.”
as §3

F. avenaceum [8] = assay: as above; assay type: cell-based, Fusarium avenaceum; settings: effective tebuconazole–WAMP-2 fragment composition; FFCI ≤ 0.5 = synergy; MFC by probit analysis
Text: as §1, with “control. […]” for “control.”
as §3

A. alternata [9] = tested on: A. alternata
Text: as §1, with “control. […]” for “control.”
as §3

P. nodorum [10] = assay: Checkerboard sensitization assay, WAMP-2 fragment with Folicur EC 250 (tebuconazole), spore germination; assay type: cell-based, Parastagonospora nodorum; settings: effective tebuconazole–WAMP-2 fragment composition; FFCI ≤ 0.5 = synergy; MFC by probit analysis
Text: as §1, with “control. […]” for “control.”
as §3

[11] = WAMP-2-derived synthetic peptides, spore germination
[12] = peptide alone, 400 μg/mL, mean of three experiments

| Compound | IC50 (B. sorokiniana [1]) [µg/mL] | IC50 (A. alternata [2]) [µg/mL] | IC50 (C. cucumerinum) [µg/mL] | IC50 (F. oxysporum) [µg/mL] | IC50 (F. culmorum [3]) [µg/mL] | Inhibition of conidium germination (F. culmorum [3]) [%] | IC50 (P. nodorum [4]) [µg/mL] | IC50 (F. avenaceum [5]) [µg/mL] | other results |
| --- | --- | --- | --- | --- | --- | --- | --- | --- | --- |
| N=C(N)NCCC[C@H](NC(=O)[C@H](CS)NC(=O)CNC(=O)[C@H](CCCNC(=N)N)NC(=O)[C@H](CS)NC(=O)[C@H](CCC(N)=O)NC(=O)[C@H](CO)NC(=O)[C@H](CCC(N)=O)NC(=O)[C@H](CS)NC(=O)[C@H](CO)NC(=O)CNC(=O)[C@H](CCCCN)NC(=O)CN)C(=O)O [WAMP-C] (H-GKGSCQSQCRGCR-OH) | 429.5 ± 51.5 (≈ 314 µM) | 550.4 ± 41.3 (≈ 402 µM) | 5.3 ± 0.1 (≈ 3.87 µM) | >700 | >700 | 23 | 329.6 ± 7.9 (≈ 241 µM) |  |  |
| CC(C)C[C@H](N)C(=O)N[C@@H](CS)C(=O)N[C@@H](CS)C(=O)NCC(=O)N[C@@H](CCCCN)C(=O)N[C@@H](Cc1ccc(O)cc1)C(=O)NCC(=O)N[C@@H](Cc1ccccc1)C(=O)N[C@@H](CS)C(=O)NCC(=O)N[C@@H](CO)C(=O)NCC(=O)O [WAMP-G1] (H-LCCGKYGFCGSG-OH) | 273.1 ± 45.7 (≈ 229 µM) | >700 | >700 | >700 | >700 |  | >700 |  |  |
| C[C@H](NC(=O)[C@H](CC(=O)O)NC(=O)CNC(=O)[C@H](CO)NC(=O)CNC(=O)[C@H](CS)NC(=O)[C@H](Cc1ccccc1)NC(=O)CNC(=O)[C@H](Cc1ccc(O)cc1)NC(=O)[C@H](CCCCN)NC(=O)CNC(=O)[C@H](CS)NC(=O)[C@@H](N)CS)C(=O)N[C@@H](Cc1ccc(O)cc1)C(=O)N[C@@H](CS)C(=O)O [WAMP-G2] (H-CCGKYGFCGSGDAYC-OH; N-terminus and C-terminus assumed) |  |  |  |  | >700 | 26.2 |  | 602.8 ± 3.1 (≈ 393 µM) | IC50 (B. sorokiniana [1]; [11]): 195.2 ± 36.8 µg/mL (≈ 127 µM); IC50 (A. alternata [2]; [11]): 145.6 ± 29.4 µg/mL (≈ 94.9 µM); Inhibition of conidium germination (A. alternata [2]; [12]): 83.8%; IC50 (C. cucumerinum; [11]): 410.2 ± 29.1 µg/mL (≈ 267 µM); IC50 (F. oxysporum; [11]): 391.2 ± 34.2 µg/mL (≈ 255 µM); IC50 (P. nodorum [4]; [11]): 424.1 ± 12.1 µg/mL (≈ 277 µM); FFCI (Fractional Fungicidal Concentration Index) (B. sorokiniana [6]): 0.13; FFCI (Fractional Fungicidal Concentration Index) (F. culmorum [7]): 0.02; FFCI (Fractional Fungicidal Concentration Index) (F. avenaceum [8]): 0.03; type of peptide–fungicide interaction (A. alternata [9]; compositions 100 + 0.05 and 100 + 0.1 µg/mL (two of nine)): additive effect; FFCI (Fractional Fungicidal Concentration Index) (A. alternata [9]; effective tebuconazole–WAMP-2 fragment composition, FFCI ≤ 0.5 = synergy, MFC by probit analysis): 0.05; FFCI (Fractional Fungicidal Concentration Index) (P. nodorum [10]): 0.04 |
| C[C@H](N)C(=O)N[C@@H](CCC(N)=O)C(=O)N[C@@H](CCCNC(=N)N)C(=O)N[C@@H](CS)C(=O)NCC(=O)N[C@@H](CC(=O)O)C(=O)N[C@@H](CCC(N)=O)C(=O)N[C@@H](C)C(=O)N[C@@H](CCCNC(=N)N)C(=O)NCC(=O)N[C@@H](C)C(=O)N[C@@H](CCCCN)C(=O)N[C@@H](CS)C(=O)O [WAMP-N] (H-AQRCGDQARGAKC-OH) | 72.9 ± 12.4 (≈ 53.5 µM) | 102.6 ± 19.6 (≈ 75.2 µM) | 280.2 ± 29.7 (≈ 205 µM) | 238.0 ± 32.4 (≈ 175 µM) | 332.4 ± 26.1 (≈ 244 µM) |  | 220.2 ± 13.5 (≈ 161 µM) | >700 | Inhibition of conidium germination (F. avenaceum [5]; [12]): 40.4% |
